# Assay results: patent US12077503B2, “Substituted cyclic amides and their use as herbicides” (FMC CORPORATION, priority 2015, dated 2024)
# What was measured:
# Assay type in all cases: in vivo
# [1] = system: ragweed (common ragweed, Ambrosia elatior); experiment: Test A preemergence; details: Ambrosia artemisiifolia, pre-emergence, 240 h, 0 to 100 scale where 0 is no effect and 100 is complete control, read-out: Ragweed plant response rating
# Outline: (§1)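 Treatment is preemergence as a directed soil spray after planting, or postemergence at the one- to two-leaf stage, with test chemical in a non-phytotoxic solvent mixture plus surfactant. Plants stay in the greenhouse about 10 d before visual injury scoring on a 0 to 100 scale versus untreated controls.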
# [2] = system: barnyardgrass (Echinochloa crus-galli); experiment: Test A preemergence; details: Echinochloa crus-galli, pre-emergence, 240 h, 0 to 100 scale where 0 is no effect and 100 is complete control, read-out: Barnyardgrass plant response rating
# Outline: as §1
# [3] = system: giant foxtail (Setaria faberii); experiment: Test A preemergence; details: Setaria faberi, pre-emergence, 240 h, 0 to 100 scale where 0 is no effect and 100 is complete control, read-out: Foxtail, Giant plant response rating
# Outline: as §1
# Kochia (Kochia scoparia) [4] = experiment: Test A preemergence; details: Bassia scoparia, pre-emergence, 240 h, 0 to 100 scale where 0 is no effect and 100 is complete control, read-out: Kochia plant response rating
# Outline: as §1
# [5] = system: ryegrass, Italian (Italian ryegrass, Lolium multiflorum); experiment: Test A preemergence; details: Lolium multiflorum, pre-emergence, 240 h, 0 to 100 scale where 0 is no effect and 100 is complete control, read-out: Ryegrass, Italian plant response rating
# Outline: as §1
# [6] = system: pigweed (Amaranthus retroflexus); experiment: Test A preemergence; details: Amaranthus retroflexus, pre-emergence, 240 h, 0 to 100 scale where 0 is no effect and 100 is complete control, read-out: Pigweed plant response rating
# [7] = system: sedge, umbrella (small-flower umbrella sedge, Cyperus difformis); experiment: Test B flooded paddy test; details: Cyperus difformis, 250 g ai/ha, Flood; 0 to 100 scale where 0 is no effect and 100 is complete control; read-out: Sedge, Umbrella plant response rating
# Outline: (§2)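 Visual ratings (0 none to 100 complete control) are relative to untreated plants, taken 13–15 d after treatment in a greenhouse. Test material went straight into floodwater standing 3 cm above the soil, kept constant, on plants at the 2-leaf stage.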
# [8] = system: barnyardgrass (Echinochloa crus-galli); experiment: Test B flooded paddy test; details: Echinochloa crus-galli, 250 g ai/ha, Flood; 0 to 100 scale where 0 is no effect and 100 is complete control; read-out: Barnyardgrass plant response rating
# Outline: as §2
# rice (Oryra sativa) = experiment: Test B flooded paddy test; details: Oryza sativa, 250 g ai/ha, Flood; 0 to 100 scale where 0 is no effect and 100 is complete control; read-out: Rice plant response rating
# Outline: as §2
# [9] = system: ducksalad (Heteranthera limosa); experiment: Test B flooded paddy test; details: Heteranthera limosa, 250 g ai/ha, Flood; 0 to 100 scale where 0 is no effect and 100 is complete control; read-out: Ducksalad plant response rating
# Outline: as §2
# corn (Zea mays) = experiment: Test A postemergence; details: Zea mays, post-emergence, 240 h
# Outline: as §1
# [10] = system: Galium (catchweed bedstraw, Galium aparine); experiment: Test A postemergence; details: Galium, post-emergence, 240 h
# Outline: as §1
# [11] = system: ragweed (common ragweed, Ambrosia elatior); experiment: Test A postemergence; details: Ambrosia artemisiifolia, post-emergence, 240 h, 125 g ai/ha, postemergence, visual injury vs untreated controls after approx. 10 d; 0 = no effect, 100 = complete control; read-out: Ragweed plant response rating (0 to 100 scale)
# Outline: as §1
# [12] = system: wheat (Triticum aestivum); experiment: Test A postemergence; details: Triticum aestivum, post-emergence, 240 h, 125 g ai/ha, postemergence, visual injury vs untreated controls after approx. 10 d; 0 = no effect, 100 = complete control; read-out: Wheat plant response rating (0 to 100 scale)
# Outline: as §1
# [13] = system: barnyardgrass (Echinochloa crus-galli); experiment: Test A postemergence; details: Echinochloa crus-galli, post-emergence, 240 h
# Outline: as §1
# [14] = system: giant foxtail (Setaria faberii); experiment: Test A postemergence; details: Setaria faberi, post-emergence, 240 h
# Outline: as §1
# [15] = system: blackgrass (Alopecurus myosuroides); experiment: Test A postemergence; details: Alopecurus myosuroides, post-emergence, 240 h
# Outline: as §1
# Kochia (Kochia scoparia) [16] = experiment: Test A postemergence; details: Bassia scoparia, post-emergence, 240 h
# Outline: as §1
# [17] = system: ryegrass, Italian (Italian ryegrass, Lolium multiflorum); experiment: Test A postemergence; details: Lolium multiflorum, post-emergence, 240 h, 125 g ai/ha, postemergence, visual injury vs untreated controls after approx. 10 d; 0 = no effect, 100 = complete control; read-out: Ryegrass, Italian plant response rating (0 to 100 scale)
# Outline: as §1
# [18] = system: pigweed (Amaranthus retroflexus); experiment: Test A postemergence; details: Amaranthus retroflexus, post-emergence, 240 h, 125 g ai/ha, postemergence, visual injury vs untreated controls after approx. 10 d; 0 = no effect, 100 = complete control; read-out: Pigweed plant response rating (0 to 100 scale)
# Outline: as §1
# [19] = 125 g ai/ha, preemergence, approx. 10 d
compound,measurement,setting,value
CON1CC[C@H](c2cccc(C(F)(F)F)c2)[C@@H](C(=O)Nc2cccc(Cl)c2F)C1=O [Compound 1171],pest or weed control at 31 g/ha,"[1]; 31 g ai/ha, Preemergence",0%
same,pest or weed control at 125 g/ha,[1]; [19],0%
same,pest or weed control at 31 g/ha,"[2]; 31 g ai/ha, Preemergence",40%
same,pest or weed control at 125 g/ha,[2]; [19],80%
same,pest or weed control at 31 g/ha,"[3]; 31 g ai/ha, Preemergence",70%
same,pest or weed control at 125 g/ha,[3]; [19],90%
same,pest or weed control at 31 g/ha,"Kochia (Kochia scoparia) [4]; 31 g ai/ha, Preemergence",0%
same,pest or weed control at 125 g/ha,Kochia (Kochia scoparia) [4]; [19],30%
same,pest or weed control at 31 g/ha,"[5]; 31 g ai/ha, Preemergence",0%
same,pest or weed control at 125 g/ha,[5]; [19],60%
same,pest or weed control at 31 g/ha,"[6]; 31 g ai/ha, Preemergence",0%
same,pest or weed control at 125 g/ha,[6]; [19],40%
same,pest or weed control at 250 g/ha,[7],0%
same,pest or weed control at 250 g/ha,[8],30%
same,pest or weed control at 250 g/ha,rice (Oryra sativa),0%
same,pest or weed control at 250 g/ha,[9],0%
same,plant injury at 125 g/ha,"corn (Zea mays); 125 g ai/ha, postemergence, visual injury vs untreated controls after approx. 10 d, 0 = no effect, 100 = complete control, read-out: Corn plant response rating (0 to 100 scale)",0%
same,"Corn plant response rating (crop injury, 0 = no effect, 100 = complete kill) at 31 g/ha","corn (Zea mays); Postemergence, 31 g ai/ha, visual injury after approx. 10 d, 0 to 100 scale, 0 no effect, 100 complete control",0%
same,pest or weed control at 125 g/ha,"[10]; 125 g ai/ha, postemergence, visual injury vs untreated controls after approx. 10 d, 0 = no effect, 100 = complete control, read-out: Galium plant response rating (0 to 100 scale)",0%
same,pest or weed control at 31 g/ha,"[10]; Postemergence, 31 g ai/ha, visual injury after approx. 10 d, 0 to 100 scale, 0 no effect, 100 complete control, read-out: Plant response rating, Galium",0%
same,pest or weed control at 125 g/ha,[11],0%
same,plant injury at 125 g/ha,[12],0%
same,pest or weed control at 125 g/ha,"[13]; 125 g ai/ha, postemergence, visual injury vs untreated controls after approx. 10 d, 0 = no effect, 100 = complete control, read-out: Barnyardgrass plant response rating (0 to 100 scale)",70%
same,pest or weed control at 31 g/ha,"[13]; Postemergence, 31 g ai/ha, visual injury after approx. 10 d, 0 to 100 scale, 0 no effect, 100 complete control, read-out: Plant response rating, Barnyardgrass",20%
same,pest or weed control at 125 g/ha,"[14]; 125 g ai/ha, postemergence, visual injury vs untreated controls after approx. 10 d, 0 = no effect, 100 = complete control, read-out: Foxtail, Giant plant response rating (0 to 100 scale)",60%
same,pest or weed control at 31 g/ha,"[14]; Postemergence, 31 g ai/ha, visual injury after approx. 10 d, 0 to 100 scale, 0 no effect, 100 complete control, read-out: Plant response rating, Foxtail, Giant",30%
same,pest or weed control at 125 g/ha,"[15]; 125 g ai/ha, postemergence, visual injury vs untreated controls after approx. 10 d, 0 = no effect, 100 = complete control, read-out: Blackgrass plant response rating (0 to 100 scale)",0%
same,pest or weed control at 31 g/ha,"[15]; Postemergence, 31 g ai/ha, visual injury after approx. 10 d, 0 to 100 scale, 0 no effect, 100 complete control, read-out: Plant response rating, Blackgrass",0%
same,pest or weed control at 125 g/ha,"Kochia (Kochia scoparia) [16]; 125 g ai/ha, postemergence, visual injury vs untreated controls after approx. 10 d, 0 = no effect, 100 = complete control, read-out: Kochia plant response rating (0 to 100 scale)",0%
same,pest or weed control at 31 g/ha,"Kochia (Kochia scoparia) [16]; Postemergence, 31 g ai/ha, visual injury after approx. 10 d, 0 to 100 scale, 0 no effect, 100 complete control, read-out: Plant response rating, Kochia",0%
same,pest or weed control at 125 g/ha,[17],0%
same,pest or weed control at 125 g/ha,[18],0%
